In experiment [1] the test system is Meloidogyne incognita. The experiment can be described thus: Meloidogyne incognita test (MELGIN): sand, salad seeds, gall formation after 14 days. It is filed as in vivo. The conditions noted are these: application rate 20 ppm, salad seedlings in sand. As for the experimental part:
Solvent: 125.0 parts by weight of acetone To produce a suitable preparation of active compound, 1 part by weight of active compound is mixed with the stated amount of solvent, and the concentrate is diluted with water to the desired concentration. Vessels are filled with sand, a solution of the active ingredient, a suspension containing eggs and larvae of the southern root-knot nematode (Meloidogyne incognita) and salad seeds. The salad seeds germinate and the seedlings grow. Galls develop in the roots. After 14 days the nematicidal activity is determined on the basis of the percentage of gall formation. 100% means that no galls were found; 0% means that the number of galls found on the roots of the treated plants was equal to that in untreated control plants.

For experiment [2], the system named is Meloidogyne incognita. The experiment can be described thus: Meloidogyne incognita test: compound solution poured into pots with soil (loamy sand), salad seeds, gall formation after 21 days. It is filed as in vivo. The settings on record: salad in soil. As to the method:
Solvent: 7 parts by weight of dimethylformamide Emulsifier: 2.5 parts by weight of alkylarylpolyglycolether To produce a suitable preparation of active compound, 1 part by weight of active compound is mixed with the stated amount of solvent and emulsifier and is diluted with water to the desired concentration. In the calculation of the concentration the soil volume has to be included. […] Further test concentrations are prepared by dilution with water. The compound solution is poured into pots filled with soil (loamy sand). A suspension containing eggs and larvae of the southern root-knot nematode (Meloidogyne incognita) is added, salad seeds are spread on the soil surface and covered with quartz sand. The salad seeds germinate and the seedlings grow. Galls develop on the roots. After 21 days the nematicidal activity is determined on the basis of the percentage of gall formation. 100% means no galls were found; 0% means the number of galls found on the roots of the treated plants was equal to that in untreated control plants.

SMILES strings stand for the structures.

As for `Cc1ccc(Cl)cc1S(=O)(=O)NC(=O)c1cn2cc(C(F)(F)F)sc2n1` [Example I-1-8], the figures for the “nematicidal activity on the basis of the percentage of gall formation (100% = no galls)” value in the experiment on Meloidogyne incognita [1] and in the experiment with Meloidogyne incognita [2] (application rate 4 ppm) were 100% and 95%, respectively.
In the case of `COc1ccc(Br)c(S(=O)(=O)NC(=O)c2cn3cc(C(F)(F)C(F)(F)F)sc3n2)c1` [Example I-1-243], the “nematicidal activity on the basis of the percentage of gall formation (100% = no galls)” value is 100% in the experiment on Meloidogyne incognita [1] and 95% in the experiment with Meloidogyne incognita [2] (application rate 8 ppm).
For the compound `O=C(NS(=O)(=O)c1c(Cl)cccc1Cl)c1cn2cc(C(F)(F)C(F)(F)F)sc2n1` [Example I-1-146], the “nematicidal activity on the basis of the percentage of gall formation (100% = no galls)” value in the experiment on Meloidogyne incognita [1] worked out at 100%; in the experiment on Meloidogyne incognita [2] (application rate 8 ppm), 90%.
On to `Cc1c(C(F)(F)C(F)(F)F)sc2nc(C(=O)NS(=O)(=O)c3ccccc3Cl)cn12` [Example I-1-255], for which the “nematicidal activity on the basis of the percentage of gall formation (100% = no galls)” value in the experiment on Meloidogyne incognita [1] and with Meloidogyne incognita [2] (application rate 8 ppm) was 100% in each case.
As to `Cc1ccc(C)c(S(=O)(=O)NC(=O)c2cn3c(C)c(C(F)(F)F)sc3n2)c1` [Example I-1-291], the “nematicidal activity on the basis of the percentage of gall formation (100% = no galls)” value in the experiment with Meloidogyne incognita [1] is 100%; in the experiment with Meloidogyne incognita [2] (application rate 4 ppm), 85%.
Consider `O=C(NS(=O)(=O)c1ccccc1F)c1cn2cc(C(F)(F)C(F)(F)F)sc2n1` [Example I-1-226], for which the “nematicidal activity on the basis of the percentage of gall formation (100% = no galls)” value in the experiment with Meloidogyne incognita [1] is reported as 100%; in the experiment with Meloidogyne incognita [2] (application rate 8 ppm), 80%.
Turning to `Cc1c(C(F)(F)C(F)(F)F)sc2nc(C(=O)NS(=O)(=O)c3cccc(Cl)c3)cn12` [Example I-1-250], the “nematicidal activity on the basis of the percentage of gall formation (100% = no galls)” value with Meloidogyne incognita [1] worked out at 90%.
`O=C(NS(=O)(=O)c1ccc(Cl)cc1)c1cn2cc(C(F)(F)C(F)(F)F)sc2n1` [Example I-1-144]: the “nematicidal activity on the basis of the percentage of gall formation (100% = no galls)” value with Meloidogyne incognita [1] turned out to be 90%.
With `CCCOc1ccc(Cl)cc1S(=O)(=O)NC(=O)c1cn2cc(C(F)(F)F)sc2n1` [Example I-1-313], in the experiment on Meloidogyne incognita [1], the “nematicidal activity on the basis of the percentage of gall formation (100% = no galls)” value worked out at 100%.
As to `COc1ccc(Cl)c(S(=O)(=O)NC(=O)c2nc3sc(C(F)(F)F)cn3c2Cl)c1` [Example I-3-4], the “nematicidal activity on the basis of the percentage of gall formation (100% = no galls)” value with Meloidogyne incognita [1] is on record as 100%.
Regarding `O=C(NS(=O)(=O)c1c(F)cccc1F)c1cn2cc(Cl)sc2n1` [Example I-1-20], the “nematicidal activity on the basis of the percentage of gall formation (100% = no galls)” value in the experiment on Meloidogyne incognita [1] is reported as 100%.
Take `Cc1c(Cl)ccc(S(=O)(=O)NC(=O)c2cn3cc(C(F)(F)F)sc3n2)c1C` [Example I-1-307]: the “nematicidal activity on the basis of the percentage of gall formation (100% = no galls)” value in the experiment on Meloidogyne incognita [1] is on record as 100%.
For the compound `O=C(NS(=O)(=O)c1c(Cl)cccc1Cl)c1cn2cc(Cl)sc2n1` [Example I-1-43], in the experiment with Meloidogyne incognita [1], the “nematicidal activity on the basis of the percentage of gall formation (100% = no galls)” value came to 100%.
On the same count and under the same terms, the same measure for `CC(=O)c1ccc(Cl)c(S(=O)(=O)NC(=O)c2cn3c(C)c(C(F)(F)F)sc3n2)c1` [Example I-1-302]: 100%; for `O=C(NS(=O)(=O)c1ccccc1Cl)c1cn2nc(C(F)(F)F)sc2n1` [Example I-1-202]: 90%.
Still for that read-out and setting: then `O=C(NS(=O)(=O)c1ccccc1F)c1cn2cc(C(F)(F)F)sc2n1` [Example I-1-212], with 100%.
With `O=C(NS(=O)(=O)c1cc(Cl)ccc1Cl)c1cn2c(C(F)(F)F)csc2n1` [Example I-1-31], in the experiment on Meloidogyne incognita [1], the “nematicidal activity on the basis of the percentage of gall formation (100% = no galls)” value was determined as 100%.
On to `COc1ccc(Cl)c(S(=O)(=O)NC(=O)c2nc3sc(C(F)(F)F)cn3c2I)c1` [Example I-3-6], for which, in the experiment with Meloidogyne incognita [1], the “nematicidal activity on the basis of the percentage of gall formation (100% = no galls)” value is 100%.
For `O=C(NS(=O)(=O)c1ccccc1Cl)c1nc2sc(C(F)(F)F)cn2c1Cl` [Example I-3-3], the “nematicidal activity on the basis of the percentage of gall formation (100% = no galls)” value in the experiment on Meloidogyne incognita [1] is listed as 100%.

Values taken from patent US9512144B2, “Imidazothiazole sufonamides as nematicides” (BAYER CROPSCIENCE AKTIENGESELLSCHAFT, priority 2013, dated 2016).
